# ChEMBL document CHEMBL1151378, “Anticancer indole alkaloids of Rhazya stricta” (1981)
# Columns and labels:
# KB = assay: Cytotoxicity against human KB cells; format: functional; conditions: read-out: ED50 (the source's name)
# P388 = assay: Cytotoxicity against mouse P388 cells; format: functional; conditions: read-out: ED50 (the source's name)
SMILES,EC50 (KB),EC50 (P388)
CCC1CCCN(CCc2c([C@H]3CCCc4c(CCN5CCCC(CC)C5)c5ccccc5n43)[nH]c3ccccc23)C1 (stereo partly drawn),0.5 µg/mL,0.29 µg/mL
CCC1CCCN(CCc2c([C@@]3(COC(C)=O)CC[C@@H](COC(C)=O)c4c(CCN5CCCC(CC)C5)c5ccccc5n43)[nH]c3ccccc23)C1 (stereo partly drawn),2.4 µg/mL,1.6 µg/mL
C/C=C1/CN2[C@H]3Cc4c([nH]c5ccccc45)[C@@H]2C[C@@H]1[C@@]3(CO)C(=O)OC [POLYNEURIDINE],> 100 µg/mL,> 100 µg/mL
C/C=C1/CN2CC[C@]34C(=C(C(=O)OC)[C@H]1C[C@H]23)Nc1ccc(O)cc14 [SEWARINE],,2.7 µg/mL
CCC1CCCN(CCc2c([C@@]3(CO)CC[C@@H](CO)c4c(CCN5CCCC(CC)C5)c5ccccc5n43)[nH]c3ccccc23)C1 (stereo partly drawn) [TETRAHYDROSECAMINEDIOL],0.0038 µg/mL,0.33 µg/mL
CCC1CCCN(CCc2c([C@@]3(C(=O)OC)CC[C@@H](C(=O)OC)c4c(CCN5CCCC(CC)C5)c5ccccc5n43)[nH]c3ccccc23)C1 (stereo partly drawn) [TETRAHYDROSECAMINE],0.69 µg/mL,0.4 µg/mL
C/C=C(/C=O)[C@@H]1C[C@H]2c3[nH]c4ccccc4c3CCN2C=C1C(=O)OC [VALLESIACHOTAMINE],3.56 µg/mL,1.1 µg/mL
